Results reported in patent publication US5910479A, “Method for the treatment of Streptococcus pneumoniae infection” (priority 1996, dated 1999).
Converted amounts (≈) assume the structure as drawn.

Legend:
[1] = system: Streptococcus pneumoniae Felton; assay: Mouse i.p. infection model (septicemia), survival; assay type: in vivo; settings: mice; for Survivors (%) / Survivors/total: twice
Procedure: Mouse i.p. infection model. Staphylococcus aureus Smith was grown in veal infusion broth and each mouse was infected intraperitoneally with 10^6 colony-forming units (CFU), diluted in broth containing 5% (w/v) Difco bacteriological mucin. Streptococcus pneumoniae Felton strain was grown in Difco Brain Heart Infusion broth (BHI) and each mouse was infected intraperitoneally with 10^3 CFU, diluted in BHI. Mice were divided into groups of 5. […] Other groups of mice received different dosages of nisin. Nisin was administered either intravenously (via the tail vein in. 0.1 ml of 5% dextrose for injection) or subcutaneously (in 0.2 ml). Two injections were given to each mouse, the first within 10 minutes after infection and the second after 5 hours. […] Different dosages of vancomycin or penicillin were administered i.v. in 0.1 ml of 5% glucose for injection.

[2] = system: S. pneumoniae; settings: strain of S. pneumoniae used; reported by Goldstein et al.; cited from earlier work

Row | SMILES | Efficacy compared with the other agents (in words) ([1]; i.v.) | Survivors (%) ([1]; i.v., 0.5 mg/kg/dose) | Survivors/total ([1]; i.v., 0.5 mg/kg/dose) | Survivors (%) ([1]; i.v., 1 mg/kg/dose) | Survivors/total ([1]; i.v., 1 mg/kg/dose) | Survivors (%) ([1]; i.v., 2 mg/kg/dose) | Survivors/total ([1]; i.v., 2 mg/kg/dose) | Survivors (%) ([1]; i.v., 4 mg/kg/dose) | Survivors/total ([1]; i.v., 4 mg/kg/dose) | Survivors (%) ([1]; i.v., 8 mg/kg/dose) | Survivors/total ([1]; i.v., 8 mg/kg/dose) | Survivors (%) ([1]; i.v., 16 mg/kg/dose) | Survivors/total ([1]; i.v., 16 mg/kg/dose) | MIC [2] | Survivors (%) ([1]; i.v., 32 mg/kg/dose) | Survivors/total ([1]; i.v., 32 mg/kg/dose) | Survivors (%) ([1]; s.c., 2 mg/kg/dose) | Survivors/total ([1]; s.c., 2 mg/kg/dose) | Survivors (%) ([1]; s.c., 4 mg/kg/dose) | Survivors/total ([1]; s.c., 4 mg/kg/dose)
1 | CC1(C)S[C@@H]2[C@H](NC(=O)Cc3ccccc3)C(=O)N2[C@H]1C(=O)O [penicillin] | less efficacious than nisin | 0% | 0/5 | 20% | 1/5 | 20% | 1/5 | 60% | 3/5 | 20% | 1/5 | 80% | 4/5 | 0.016 µg/mL (≈ 0.0478 µM) |  |  |  |  |  | 
2 | CN[C@H](CC(C)C)C(=O)N[C@H]1C(=O)N[C@@H](CC(N)=O)C(=O)N[C@H]2C(=O)N[C@H]3C(=O)N[C@H](C(=O)N[C@H](C(=O)O)c4cc(O)cc(O)c4-c4cc3ccc4O)[C@H](O)c3ccc(c(Cl)c3)Oc3cc2cc(c3O[C@@H]2O[C@H](CO)[C@@H](O)[C@H](O)[C@H]2O[C@H]2C[C@](C)(N)[C@H](O)[C@H](C)O2)Oc2ccc(cc2Cl)[C@H]1O [vancomycin] | less efficacious than nisin |  |  | 40% | 2/5 | 60% | 3/5 | 80% | 4/5 | 100% | 5/5 | 100% | 5/5 |  | 100% | 5/5 | 60% | 3/5 | 60% | 3/5
